Consider 29 compounds from patent US8247610B2, “Amine linked modulators of γ-secretase” (Janssen Pharmaceutica N.V., priority 2007, dated 2012).

For the experiment, the target named is T1, γ-secretase (Homo sapiens, UniProt P49768).
T1 construct: endogenous in cells; host or cells: SKNBE2 cells carrying APP 695 wild type
Nature of the experiment: Screening for γ-secretase-modulating activity in SKNBE2 cells carrying the APP 695 wild type. Particulars: SKNBE2 cells carrying APP 695 wild type; for % printed in the EC50 column, no concentration given: concentration not given. In kind it is cell-based. The protocol:
Screening of the Compounds of the Invention for γ-Secretase-Modulating Activity
Screening was carried out using SKNBE2 cells carrying the APP 695—wild type, grown in DMEM/NUT-mix F12 (HAM) provided by Gibco (cat no. 31330-38) containing 5% Serum/Fe supplemented with 1% non-essential amino acids.
Cells were grown to near confluency.
The screening was performed using the assay as described in Citron et al (1997) Nature Medicine 3: 67.

Each structure is given as a SMILES string.

As for `CC(C)C[C@@H](C(=O)O)c1cc(NCc2ccc(C#N)cc2)cc(-c2ccc(C(F)(F)F)cc2)c1` [Compound 47, (R) 2-[5-(4-Cyano-benzylamino)-4′-trifluoromethyl-biphenyl-3-yl]-4-methyl-pentanoic acid], testing at 0.3 µM gave an inhibition of 0%.
Still for that read-out and setting: with `CC(C)CCN(Cc1ccc(C#N)cc1)c1cc(-c2ccc(C(F)(F)F)cc2)cc([C@@H](CC(C)C)C(=O)O)c1` [Compound 48, (R) 2-{5-[(4-Cyano-benzyl)-(3-methyl-butyl)-amino]-4′-trifluoromethyl-biphenyl-3-yl}-4-methyl-pentanoic acid] the figure was 31%.
`CC(C)CCN(Cc1cc(C(F)(F)F)cc(C(F)(F)F)c1)c1cc(-c2ccc(C(F)(F)F)cc2)cc([C@@H](CC(C)C)C(=O)O)c1` [Compound 49, (R) 2-{5-[(3,5-Bis-trifluoromethyl-benzyl)-(3-methyl-butyl)-amino]-4′-trifluoromethyl-biphenyl-3-yl}-4-methyl-pentanoic acid] gave an EC50 of 220 nM.
`CC(C)CCC(c1cc(F)cc(F)c1)N(C)c1cc(-c2ccc(C(F)(F)F)cc2)cc(C(CC(C)C)C(=O)O)c1` (centres unmarked) [Compound 50, 2-(5-{[1-(3,5-Difluoro-phenyl)-4-methyl-pentyl]-methyl-amino}-4′-trifluoromethyl-biphenyl-3-yl)-4-methyl-pentanoic acid]: 0.3 µM produced 65% inhibition.
Consider `CC(C)CC(C(=O)O)c1cc(NCc2ccc(F)cc2C(F)(F)F)cc(-c2ccc(C(F)(F)F)cc2)c1` (centres unmarked) [Compound 51, 2-(5-(4-fluoro-2-(trifluoromethyl)benzylamino)-4′-(trifluoromethyl)biphenyl-3-yl)-4-methylpentanoic acid], for which the midpoint of the response, the EC50, lay at 640 nM.
With `CC(C)CC(C(=O)O)c1cc(-c2ccc(C(F)(F)F)cc2)cc(N2CCc3ccccc3C2)c1` (centres unmarked) [Compound 53, 4-Methyl-2-[-5-(3,4-dihydroisoquinolin-2(1H)-yl)-4′-(trifluoromethyl)biphenyl-3-yl]-pentanoic acid], the inhibition at 0.3 µM is 0%.
For the compound `CC(C)CCN(Cc1cc(-c2ccc(C(F)(F)F)cc2)cc(C(CC(C)C)C(=O)O)c1)Cc1cc(F)c(F)c(F)c1` (centres unmarked) [Compound 54, 4-Methyl-2-(5-{[(3-methyl-butyl)-(3,4,5-trifluoro-benzyl)-amino]-methyl}-4′-trifluoromethyl-biphenyl-3-yl)-pentanoic acid], the EC50 stood at 270 nM.
The same measure, in the same setting: under `CC(C)CCN(Cc1ccc(C(F)(F)F)cc1)Cc1cc(-c2ccc(C(F)(F)F)cc2)cc(C(CC(C)C)C(=O)O)c1` (centres unmarked) [Compound 56, 4-Methyl-2-(5-{[(3-methyl-butyl)-(4-trifluoromethyl-benzyl)-amino]-methyl}-4′-trifluoromethyl-biphenyl-3-yl)-pentanoic acid] stands 220 nM.
Compound `CC(C)CCN(Cc1cc(CC(=O)O)cc(-c2ccc(C(F)(F)F)cc2)c1)Cc1ccc(Cl)c(F)c1` [Compound 57, (5-{[(4-Chloro-3-fluoro-benzyl)-(3-methyl-butyl)-amino]-methyl}-4′-trifluoromethyl-biphenyl-3-yl)-acetic acid] gave an inhibition at 0.3 µM of 11%.
`CC(C)CCN(Cc1ccc(C(F)(F)F)cc1)Cc1cc(CC(=O)O)cc(-c2ccc(C(F)(F)F)cc2)c1` [Compound 58, (5-{[(3-Methyl-butyl)-(4-trifluoromethyl-benzyl)-amino]-methyl}-4′-trifluoromethyl-biphenyl-3-yl)-acetic acid] gave an EC50 of 590 nM.
In turn, `CC(C)CCN(Cc1cc(F)cc(F)c1)Cc1cc(-c2ccc(C(F)(F)F)cc2)cc(C(CC(C)C)C(=O)O)c1` (centres unmarked) [Compound 59, 2-(5-{[(3,5-Difluoro-benzyl)-(3-methyl-butyl)-amino]-methyl}-4′-trifluoromethyl-biphenyl-3-yl)-4-methyl-pentanoic acid] returned an EC50 of 240 nM.
Same read-out and setting: under `CC(C)CCN(Cc1cc(-c2ccc(C(F)(F)F)cc2)cc(C(CC(C)C)C(=O)O)c1)Cc1ccc(F)cc1C(F)(F)F` (centres unmarked) [Compound 60, 2-(5-{[(4-Fluoro-2-trifluoromethyl-benzyl)-(3-methyl-butyl)-amino]-methyl}-4′-trifluoromethyl-biphenyl-3-yl)-4-methyl-pentanoic acid] stands 300 nM.
The same measure, in the same setting: with `CC(C)CCN(Cc1cc(-c2ccc(C(F)(F)F)cc2)cc(C(CC(C)C)C(=O)O)c1)Cc1cccc(C(F)(F)F)c1` (centres unmarked) [Compound 61, 4-Methyl-2-(5-{[(3-methyl-butyl)-(3-trifluoromethyl-benzyl)-amino]-methyl}-4′-trifluoromethyl-biphenyl-3-yl)-pentanoic acid] the figure was 390 nM.
On the same count and under the same terms, under `CC(C)CCN(Cc1ccc(F)cc1)Cc1cc(-c2ccc(C(F)(F)F)cc2)cc(C(CC(C)C)C(=O)O)c1` (centres unmarked) [Compound 62, 2-(5-{[(4-Fluoro-benzyl)-(3-methyl-butyl)-amino]-methyl}-4′-trifluoromethyl-biphenyl-3-yl)-4-methyl-pentanoic acid] stands 130 nM; under `CC(C)CCN(Cc1cc(-c2ccc(C(F)(F)F)cc2)cc([C@@H](CC(C)C)C(=O)O)c1)c1ccc(C(F)(F)F)cc1` [Compound 63, 4-Methyl-2-(5-{[(3-methyl-butyl)-(4-trifluoromethyl-phenyl)-amino]-methyl}-4′-trifluoromethyl-biphenyl-3-yl)-pentanoic acid], 250 nM; under `CC(C)CC(C(=O)O)c1cc(-c2ccc(C(F)(F)F)cc2)cc(N(C)c2ccc(Cl)cc2)c1` (centres unmarked) [Example 1, 2-{5-[(4-Chloro-phenyl)-methyl-amino]-4′-trifluoromethyl-biphenyl-3-yl}-4-methyl-pentanoic acid], 620 nM.
Consider `CC(C)CC(C(=O)O)c1cc(-c2ccc(C(F)(F)F)cc2)cc(N(C)c2cccc(C(F)(F)F)c2)c1` (centres unmarked) [Example 2, 4-Methyl-2-{5-[methyl-(3-trifluoromethyl-phenyl)-amino]-4′-trifluoromethyl-biphenyl-3-yl}-pentanoic acid], for which the EC50 was 220 nM.
Still for that read-out and setting: with `CC(C)CC(C(=O)O)c1cc(-c2ccc(C(F)(F)F)cc2)cc(N(C)c2cc(F)cc(F)c2)c1` (centres unmarked) [Example 3, 2-{5-[(3,5-Difluoro-phenyl)-methyl-amino]-4′-trifluoromethyl-biphenyl-3-yl}-4-methyl-pentanoic acid] the figure was 450 nM.
On to `CC(C)CC(C(=O)O)c1cc(-c2ccc(C(F)(F)F)cc2)cc(N(C)c2ccc(C(C)C)cc2)c1` (centres unmarked) [Example 7, 2-{5-[(4-Isopropyl-phenyl)-methyl-amino]-4′-trifluoromethyl-biphenyl-3-yl}-4-methyl-pentanoic acid], for which the “% printed in the EC50 column, no concentration given” value amounted to 8%.
On the same count and under the same terms, with `CC(C)CC(C(=O)O)c1cc(-c2ccc(C(F)(F)F)cc2)cc(N(C)c2ccc(C#N)cc2)c1` (centres unmarked) [Example 8, 2-{5-[(4-Cyano-phenyl)-methyl-amino]-4′-trifluoromethyl-biphenyl-3-yl}-4-methyl-pentanoic acid] the figure was −0%.
Compound `CC(C)CC(C(=O)O)c1cc(-c2ccc(C(F)(F)F)cc2)cc(N(C)c2ccc(Cl)c(C(F)(F)F)c2)c1` (centres unmarked) [Example 9, 2-{5-[(4-Chloro-3-trifluoromethyl-phenyl)-methyl-amino]-4′-trifluoromethyl-biphenyl-3-yl}-4-methyl-pentanoic acid] came in with an EC50 of 330 nM.
Still for that read-out and setting: with `CC(C)CC(C(=O)O)c1cc(-c2ccc(C(F)(F)F)cc2)cc(N(C)c2cc(C(F)(F)F)cc(C(F)(F)F)c2)c1` (centres unmarked) [Example 10, 2-{5-[(3,5-Bis-trifluoromethyl-phenyl)-methyl-amino]-4′-trifluoromethyl-biphenyl-3-yl}-4-methyl-pentanoic acid] the figure was 190 nM.
`CC(C)CC(C(=O)O)c1cc(-c2ccc(C(F)(F)F)cc2)cc(N(C)c2ccc(F)cc2C(F)(F)F)c1` (centres unmarked) [Example 11, 2-{5-[(4-Fluoro-2-trifluoromethyl-phenyl)-methyl-amino]-4′-trifluoromethyl-biphenyl-3-yl}-4-methyl-pentanoic acid] came in with an inhibition at 0.3 µM of 23%.
Compound `CC(C)CC(C(=O)O)c1cc(-c2ccc(C(F)(F)F)cc2)cc(N(C)c2cc(C(F)(F)F)ccc2C(F)(F)F)c1` (centres unmarked) [Example 12, 2-{5-[(2,5-Bis-trifluoromethyl-phenyl)-methyl-amino]-4′-trifluoromethyl-biphenyl-3-yl}-4-methyl-pentanoic acid] had an EC50 of 160 nM.
For `CCN(c1cc(-c2ccc(C(F)(F)F)cc2)cc(C(CC(C)C)C(=O)O)c1)c1cccc(C(F)(F)F)c1` (centres unmarked) [Example 13, 2-{5-[Ethyl-(3-trifluoromethyl-phenyl)-amino]-4′-trifluoromethyl-biphenyl-3-yl}-4-methyl-pentanoic acid], the inhibition at 0.3 µM is 16%.
On the same count and under the same terms, with `CCN(c1ccc(Cl)cc1)c1cc(-c2ccc(C(F)(F)F)cc2)cc(C(CC(C)C)C(=O)O)c1` (centres unmarked) [Example 14, 2-{5-[(4-Chloro-phenyl)-ethyl-amino]-4′-trifluoromethyl-biphenyl-3-yl}-4-methyl-pentanoic acid] the figure was 14%.
`CC(C)CC(C(=O)O)c1cc(-c2ccc(C(F)(F)F)cc2)cc(N(C)c2ccc(C(F)(F)F)nc2)c1` (centres unmarked) [Example 15, 4-Methyl-2-{5-[methyl-(6-trifluoromethyl-pyridin-3-yl)-amino]-4′-trifluoromethyl-biphenyl-3-yl}-pentanoic acid] returned an EC50 of 850 nM.
In the case of `CC(C)CC(C(=O)O)c1cc(-c2ccc(C(F)(F)F)cc2)cc(N(C)c2cc[n+](C)cc2)c1` (centres unmarked) [Example 16, 4-{[5-(1-Carboxy-3-methyl-butyl)-4′-trifluoromethyl-biphenyl-3-yl]-methyl-amino}-1-methyl-pyridinium], the inhibition at 0.3 µM was found to be 13%.
As to `CC(C)CCN(c1cc(-c2ccc(C(F)(F)F)cc2)cc(C(CC(C)C)C(=O)O)c1)c1cccc(C(F)(F)F)c1` (centres unmarked) [Example 17, 4-Methyl-2-{5-[(3-methyl-butyl)-(3-trifluoromethyl-phenyl)-amino]-4′-trifluoromethyl-biphenyl-3-yl}-pentanoic acid], a half-maximal response (EC50) required 260 nM.
